Data: patent US20190374533A1, “COMPOUNDS AND METHODS FOR INHIBITING NHE-MEDIATED ANTIPORT IN THE TREATMENT OF DISORDERS ASSOCIATED WITH FLUID RETENTION OR SALT OVERLOAD AND GASTROINTESTINAL TRACT DISORDERS” (Ardelyx, Inc., priority 2008, published 2019)
pIC50: −log10 of the molar value. Structures can show the parent of a compound that is named as a salt.

Experiments:
fecal water content = assay: Pharmacodynamic model: effect of test compounds on fecal water content; type: in vivo, rat; details: female Sprague Dawley rats, 3 mg/kg oral, feces collected 16 hrs; for % Fecal water: mean of 6
Procedure: Normal female Sprague Dawlev rats (Charles-River laboratories international, Hollister, Calif.), 7-8 weeks old with body weight 175-200 g were acclimated for at least 3 days before proceeding to experiments. The animals were provided food (Harlan Teklad 2018c) and water ad lib, through the experiment. Animals were randomly grouped with 6 rats per group.
The experiments were initiated by orally dosing test compounds at 3 mg/kg in volume of 10 ml/kg. Rats from control group were gavaged with the same volume of vehicle (water). After dosing, rats were placed in metabolic cages for 16 hrs (overnight). Food and water consumption were monitored. After sixteen hours, feces and urine were collected. The percent of fecal water was measured by weighing fecal samples before and after drying.
Representative data of % fecal water content are shown in Table 12 (data are expressed as means, with 6 animals per data point). The differences between control and treated groups were evaluated by one way ANOVA with Dunnett post tests. Results are significant if p<0.05.

human NHE3 = target: T1, human NHE3 (Homo sapiens, UniProt P48764); assay: Cell-based assay of NHE-3 activity (persistent inhibition), human; details: human Persistence assay; for pIC50: 60 min incubation, washout, recovery initiated 10 min after washout
T1 construct: host or cells: PS120 fibroblasts
T1 sequence (P48764 26-834): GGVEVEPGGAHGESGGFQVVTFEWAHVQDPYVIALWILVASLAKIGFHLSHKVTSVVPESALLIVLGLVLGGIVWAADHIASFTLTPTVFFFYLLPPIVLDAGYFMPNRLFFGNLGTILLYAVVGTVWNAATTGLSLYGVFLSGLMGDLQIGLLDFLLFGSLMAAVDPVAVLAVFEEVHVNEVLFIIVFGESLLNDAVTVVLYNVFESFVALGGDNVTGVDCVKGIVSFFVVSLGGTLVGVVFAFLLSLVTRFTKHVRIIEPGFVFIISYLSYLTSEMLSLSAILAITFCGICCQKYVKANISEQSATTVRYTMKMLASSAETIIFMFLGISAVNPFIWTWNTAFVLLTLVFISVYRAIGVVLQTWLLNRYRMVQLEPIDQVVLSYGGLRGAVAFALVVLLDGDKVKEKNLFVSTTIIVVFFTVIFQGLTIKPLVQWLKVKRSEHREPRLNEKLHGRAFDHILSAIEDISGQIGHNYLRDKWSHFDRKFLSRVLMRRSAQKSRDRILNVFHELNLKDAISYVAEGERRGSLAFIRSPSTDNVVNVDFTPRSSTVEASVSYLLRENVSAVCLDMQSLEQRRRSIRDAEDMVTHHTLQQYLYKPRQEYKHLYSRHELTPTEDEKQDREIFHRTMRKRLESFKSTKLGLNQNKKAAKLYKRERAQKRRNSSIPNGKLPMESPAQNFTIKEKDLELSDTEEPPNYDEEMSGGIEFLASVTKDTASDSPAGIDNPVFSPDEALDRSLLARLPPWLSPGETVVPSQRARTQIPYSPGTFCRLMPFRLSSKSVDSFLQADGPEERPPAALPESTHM
T1 sequence (Q99653 2-195 partner limits assumed): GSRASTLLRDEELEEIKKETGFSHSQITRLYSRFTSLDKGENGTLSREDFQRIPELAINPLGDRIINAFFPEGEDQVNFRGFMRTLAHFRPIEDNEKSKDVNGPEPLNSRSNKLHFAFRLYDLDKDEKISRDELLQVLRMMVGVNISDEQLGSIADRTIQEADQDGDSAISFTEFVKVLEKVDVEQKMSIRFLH
Procedure: The ability of compounds to inhibit human and rat NHE-3-mediated Na^+-dependent H^+ antiport after application and washout was measured using a modification of the pH sensitive dye method described above. PS120 fibroblasts stably expressing human NHE3 and NHERF2 were obtained from Mark Donowitz (Baltimore, Md.). Opossum kidney (OK) cells were obtained from the ATCC and propagated per their instructions. The rat NHE-3 gene was introduced into OK cells via electroporation, and cells were seeded into 96 well plates and grown overnight. Medium was aspirated from the wells, cells were washed once with NaCl-HEPES buffer (100 mM NaCl, 50 mM HEPES, 10 mM glucose, 5 mM KCl, 2 mM CaCl2, 1 mM MgCl2, pH 7.4), then overlayed with NaCl-HEPES buffer containing 0-30 μM test compound. After a 60 min incubation at room temperature, the test drug containing buffer was aspirated from the cells. Following aspiration, cells were washed once with NaCl-HEPES buffer without drug, then incubated for 30 min at 37° C. with NH4Cl-HEPES buffer (20 mM NH4Cl, 80 mM NaCl, 50 mM HEPES, 5 mM KCl, 2 mM CaCl2, 1 mM MgCl2, pH 7.4) containing 5 μM BCECF-AM. Cells were washed once with Ammonium free, Na^+-free HEPES (100 mM choline, 50 mM HEPES, 10 mM glucose, 5 mM KCl, 2 mM CaCl2. 1 mM MgCl2. pH 7.4) and incubated in the same buffer for 10 minutes at room temperature to lower intracellular pH. NHE-3-mediated recovery of neutral intracellular pH was initiated (10 min after compound washout) by addition of Na-HEPES buffer. […] Changes in intracellular pH were monitored using a FLIPR Tetra® (Molecular Devices, Sunnyvale, Calif.) by excitation at λex 439 to 505 nm, and measuring BCECF fluorescence at λem 538 nm. The initial rate of the fluorescence ratio change was used as a measure of NHE-mediated Na^+/H^+ activity, and reported as the change in fluorescence ratio per minute.

NHE3 = target: T2, NHE3 (Homo sapiens, UniProt P48764); assay: Sustained inhibition of apical acid secretion in human organoid monolayer cell cultures (duodenum); type: cell-based; details: 1 μM apical
T2 construct: due to the increase in NHE3 expression after differentiation; endogenous in cells; host or cells: human ileum / duodenum organoid-derived monolayers
T2 sequence (P48764 26-834): T1 sequence (P48764 26-834)

[1] = system: gastrointestinal motility; assay: Restoration of gastrointestinal motility in opioid induced constipation (loperamide); type: in vivo, mice; details: 15 mg/kg oral gavage, loperamide s.c., Evans Blue dye front after 30 minutes

CN1Cc2c(Cl)cc(Cl)cc2[C@H](c2cccc(S(=O)(=O)NCCOCCOCCNC(=O)Nc3ccc(NC(=O)NCCOCCOCCNS(=O)(=O)c4cccc([C@@H]5CN(C)Cc6c(Cl)cc(Cl)cc65)c4)cc3)c2)C1 (single isomer, unassigned) [Example 203, (S or R)—N,N′-(2,2′-(2,2′-(2,2′-(1,4-phenylenebis(azanediyl))bis(oxomethylene)bis(azanediyl)bis(ethane-2,1-diyl))bis(oxy)bis(ethane-2,1-diyl))bis(oxy)bis(ethane-2,1-diyl))bis(3-((S or R)-6,8-dichloro-2-methyl-1,2,3,4-tetrahydroisoquinolin-4-yl)benzenesulfonamide) bis-hydrochloride salt]
% Fecal water (% of control) (fecal water content): 130% of control
% Fecal water (fecal water content): 61%
% inhibition (human NHE3): C (>70%)
pIC50 (human NHE3): > 7.00

CN1Cc2c(Cl)cc(Cl)cc2[C@H](c2cccc(S(=O)(=O)NCCOCCOCCNC(=O)NCCCCNC(=O)NCCOCCOCCNS(=O)(=O)c3cccc([C@@H]4CN(C)Cc5c(Cl)cc(Cl)cc54)c3)c2)C1 (single isomer, unassigned) [Example 202, (S or R)—N,N′-(10,17-dioxo-3,6,21,24-tetraoxa-9,11,16,18-tetraazahexacosane-1,26-diyl)bis(3-((S)-6,8-dichloro-2-methyl-1,2,3,4-tetrahydroisoquinolin-4-yl)benzenesulfonamide) bis-hydrochloride salt]
% Fecal water (% of control) (fecal water content): 134% of control
% Fecal water (fecal water content): 63%
% inhibition (human NHE3): C (>70%)
pIC50 (human NHE3): > 7.00
% inhibition (duodenum) (NHE3): C (>70%)
% Restoration of Transit [1]: C (>40%)
